SMILES	melting point [°C]
O=C(O)c1cncc(NC(=S)Nc2ccccc2)c1 [Compound 1, 5-(3-Phenylthioureido)pyridine-3-carboxylic acid]	> 300
O=C(O)c1cncc(NC(=S)Nc2ccc(Cl)cc2)c1 [Compound 2, 5-(3-(4-Chlorophenyl)thioureido)pyridine-3-carboxylic acid]	> 300
Cc1ccc(NC(=S)Nc2cncc(C(=O)O)c2)cc1 [Compound 3, 5-(3-p-Tolylthioureido)pyridine-3-carboxylic acid]	> 300
O=C(O)c1cncc(NC(=S)Nc2ccc(F)cc2)c1 [Compound 4, 5-(3-(4-Fluorophenyl)thioureido)pyridine-3-carboxylic acid]	> 300
O=C(O)c1cncc(NC(=S)Nc2ccc([N+](=O)[O-])cc2)c1 [Compound 5, 5-(3-(4-Nitrophenyl)thioureido) pyridine-3-carboxylic acid]	> 300
COc1ccc(NC(=S)Nc2cncc(C(=O)O)c2)cc1 [Compound 6, 5-(3-(4-Methoxyphenyl)thioureido) pyridine-3-carboxylic acid]	> 300

Second part, the compound after the results:

melting point [°C]	SMILES
> 300	O=C(O)c1cncc(NC(=S)Nc2ccc(Br)cc2)c1 [Compound 7, 5-(3-(4-Bromophenyl)thioureido) pyridine-3-carboxylic acid]
> 300	O=C(O)c1cncc(NC(=S)Nc2ccc(C(F)(F)F)cc2)c1 [Compound 8, 5-(3-(4-(Trifluoromethyl)phenyl)thioureido) pyridine-3-carboxylic acid]
> 300	Cc1ccc(NC(=S)Nc2cncc(C(=O)O)c2)cc1Cl [Compound 9, 5-(3-(3-Chloro-4-methylphenyl)thioureido) pyridine-3-carboxylic acid]
> 300	O=C(O)c1cncc(NC(=S)Nc2ccccc2F)c1 [Compound 10, 5-(3-(2-Fluorophenyl)thioureido) pyridine-3-carboxylic acid]
> 300	O=C(O)c1cncc(NC(=S)Nc2cccc(F)c2)c1 [Compound 11, 5-(3-(3-Fluorophenyl)thioureido) pyridine-3-carboxylic acid]
> 300	O=C(O)c1cncc(NC(=S)Nc2ccccc2Br)c1 [Compound 12, 5-(3-(2-Bromophenyl)thioureido) pyridine-3-carboxylic acid]
> 300	O=C(O)c1cncc(NC(=S)Nc2cccc(Br)c2)c1 [Compound 13, 5-(3-(3-Bromophenyl)thioureido) pyridine-3-carboxylic acid]

Source: publication PMC7362424, “Structural elucidation, molecular docking, α-amylase and α-glucosidase inhibition studies of 5-amino-nicotinic acid derivatives” (BMC Chemistry, 2020)
